Laboratory results taken from ChEMBL document CHEMBL3612044, “Phosphate Chemical Probes Designed for Location Specific Inhibition of Intracellular Carbonic Anhydrases” (J Med Chem, 2015).

What follows are compounds tested against Carbonic anhydrase 9 (Homo sapiens, UniProt Q16790) (assay: Inhibition of human carbonic anhydrase-9 by stopped-flow CO2 hydration assay).

| SMILES | Ki [nM] |
| --- | --- |
| CC(=O)O[C@@H]1[C@@H](OC(C)=O)[C@H](S(N)(=O)=O)O[C@H](COP(=O)(OCCSC(=O)C(C)(C)C)OCCSC(=O)C(C)(C)C)[C@H]1OC(C)=O | 154 |
| NS(=O)(=O)c1ccc(-c2cn([C@@H]3O[C@H](COP(=O)(O)O)[C@@H](O)[C@H](O)[C@H]3O)nn2)cc1 | 248 |
| CC(=O)O[C@@H]1[C@@H](OC(C)=O)[C@H](n2cc(-c3ccc(S(N)(=O)=O)cc3)nn2)O[C@H](COP(=O)(OCCSC(=O)C(C)(C)C)OCCSC(=O)C(C)(C)C)[C@H]1OC(C)=O | 135 |
| CC(=O)O[C@@H]1[C@@H](OC(C)=O)[C@H](n2cc(-c3ccc(S(N)(=O)=O)cc3)nn2)O[C@H](COP2(=O)OCc3ccccc3O2)[C@H]1OC(C)=O (stereo not given in full) | 84.3 |
| NS(=O)(=O)[C@@H]1O[C@H](COP(=O)(O)O)[C@@H](O)[C@H](O)[C@H]1O | 213 |
